The nature of data set [1]: Toxicity in female BALB/cA nude mouse assessed as damage in heart at 38 mg/kg, iv measured after 24 hrs by H and E staining based analysis. It counts as organism-based. The note with it: in vivo.
Data set [2] can be described thus: AUC (0 to t) in female BALB/c mouse at 38 mg/kg measured up to 168 hrs by HPLC analysis. It counts as ADME, organism-based. The note with it: in vivo.
The nature of data set [3]: Toxicity in female BALB/cA nude mouse assessed as appearance of inflammatory lesions in lung at 38 mg/kg, iv administered once a week for 35 days by H and E staining based analysis. It counts as organism-based. The note with it: in vivo, 840 h, time 35 day.
A short description of data set [4]: Toxicity in female BALB/cA nude mouse assessed as fibrotic changes in tumor at 38 mg/kg, iv administered once a week for 35 days by H and E staining based analysis. It counts as organism-based. The note with it: in vivo, 840 h, time 35 day.
Data set [5] in a line: Toxicity in female BALB/cA nude mouse assessed as fibrotic changes in liver at 38 mg/kg, iv administered once a week for 35 days by H and E staining based analysis. The note with it: in vivo, 840 h, time 35 day. It counts as organism-based.
Data set [6] relates to HCT-116. The data set is described as follows: Antitumor activity against human HCT-116 cells xenografted in female BALB/cA nude mouse model assessed as relative tumor proliferation rate at 38 mg/kg, iv administered twice per week measured after 24 days relative to control. It counts as functional. The note with it: time 24 day.
Data set [7] in a line: Toxicity in female BALB/cA nude mouse assessed as effect on body weight loss at 38 mg/kg, iv administered twice per week measured for 107 days. The note with it: in vivo, 2568 h, time 107 day. It counts as organism-based.
The nature of data set [8]: Toxicity in female BALB/cA nude mouse assessed as appearance of inflammatory lesions in tumor at 38 mg/kg, iv administered once a week for 35 days by H and E staining based analysis. It counts as organism-based. The note with it: in vivo, 840 h, time 35 day.
Data set [9] in a line: Volume of distribution in female BALB/c mouse at 38 mg/kg measured up to 168 hrs by HPLC analysis. The note with it: in vivo. It counts as ADME, organism-based.
Data set [10] in a line: Clearance in female BALB/c mouse at 38 mg/kg measured up to 168 hrs by HPLC analysis. It counts as ADME, organism-based. The note with it: in vivo.
A short description of data set [11]: Toxicity in female BALB/cA nude mouse assessed as appearance of fibrosis in heart at 38 mg/kg, iv measured after 24 hrs by H and E staining based analysis. The note with it: in vivo. It counts as organism-based.
The nature of data set [12]: Toxicity in female BALB/cA nude mouse assessed as necrosis in tumor tissue at 38 mg/kg, iv measured after 24 hrs by H and E staining based analysis. The note with it: in vivo. It counts as organism-based.
The nature of data set [13]: Toxicity in female BALB/cA nude mouse assessed as mortality at 38 mg/kg, iv administered twice per week measured after 107 days. It counts as organism-based. The note with it: in vivo, 2568 h, time 107 day.
Data set [14] in a line: Toxicity in female BALB/cA nude mouse assessed as appearance of inflammatory lesions in spleen at 38 mg/kg, iv administered once a week for 35 days by H and E staining based analysis. The note with it: in vivo, 840 h, time 35 day. It counts as organism-based.
Data set [15] can be described thus: Toxicity in female BALB/cA nude mouse assessed as appearance of inflammatory lesions in heart at 38 mg/kg, iv administered once a week for 35 days by H and E staining based analysis. It counts as organism-based. The note with it: in vivo, 840 h, time 35 day.
A short description of data set [16]: Toxicity in female BALB/cA nude mouse assessed as fibrotic changes in lung at 38 mg/kg, iv administered once a week for 35 days by H and E staining based analysis. It counts as organism-based. The note with it: in vivo, 840 h, time 35 day.
Data set [17] can be described thus: Prodrug release in female BALB/c nude mouse tumor assessed as (S)-4,11-diethyl-4,9-dihydroxy-1,12-dihydro-14H-pyrano[3',4':6,7]indolizino[1,2-b]quinoline-3,14(4H)-dione accumulation at 38 mg/kg measured after 6 hrs by HPLC analysis. It counts as ADME, organism-based, Neoplasm. The note with it: in vivo.
A short description of data set [18]: Toxicity in female BALB/cA nude mouse assessed as animal fatality at 38 mg/kg, iv administered once a week for 35 days. It counts as organism-based. The note with it: in vivo, 840 h, time 35 day.
In data set [19] the test system is BXPC-3. The data set is described as follows: Antitumor activity against human BXPC-3 cells xenografted in female BALB/cA nude mouse model assessed as suppression of tumor growth by measuring relative tumor proliferation rate at 38 mg/kg, iv measured after 18 days. It counts as functional, organism-based. The note with it: time 18.0 day.
A short description of data set [20]: Toxicity in female BALB/cA nude mouse assessed as fibrotic changes in spleen at 38 mg/kg, iv administered once a week for 35 days by H and E staining based analysis. The note with it: in vivo, 840 h, time 35 day. It counts as organism-based.
Data set [21] concerns BXPC-3. Kind of data set: Antitumor activity against human BXPC-3 cells xenografted in female BALB/cA nude mouse model assessed as suppression of tumor growth by measuring relative tumor proliferation rate at 38 mg/kg, iv measured after 17 days relative to control. It counts as functional. The note with it: time 17 day. On the technique in general: In xenograft studies the graft and the host belong to different species.

A short description of data set [22]: Toxicity in female BALB/cA nude mouse assessed as necrosis in tumor tissue at 25 mg/kg, iv measured after 24 hrs by H and E staining based analysis. The note with it: in vivo. It counts as organism-based.
A short description of data set [23]: Toxicity in female BALB/cA nude mouse assessed as fibrotic changes in spleen at 25 mg/kg, iv administered once a week for 35 days by H and E staining based analysis. The note with it: in vivo, 840 h, time 35 day. It counts as organism-based.
Data set [24] in a line: Toxicity in female BALB/cA nude mouse assessed as appearance of inflammatory lesions in tumor at 25 mg/kg, iv administered once a week for 35 days by H and E staining based analysis. It counts as organism-based. The note with it: in vivo, 840 h, time 35 day.
In data set [25] the test system is HCT-116. The data set is described as follows: Antitumor activity against human HCT-116 cells xenografted in female BALB/cA nude mouse model assessed as tumor shrinkage at 25 mg/kg, iv administered twice per week measured after 100 days relative to control. It counts as functional. The note with it: time 100 day.
The subject of data set [26] is HCT-116. Kind of data set: Antitumor activity against human HCT-116 cells xenografted in female BALB/cA nude mouse model assessed as tumor shrinkage at 25 mg/kg, iv administered twice per week measured after 65 days relative to control. It counts as functional. The note with it: time 65 day.
Data set [27] can be described thus: Cmax in female BALB/c mouse at 25 mg/kg measured up to 120 hrs by HPLC analysis. It counts as ADME, organism-based. The note with it: in vivo.
A short description of data set [28]: Half life in female BALB/c mouse at 25 mg/kg measured up to 120 hrs by HPLC analysis. It counts as ADME, organism-based. The note with it: in vivo.
Data set [29] can be described thus: Prodrug release in female BALB/c nude mouse tumor assessed as (S)-4,11-diethyl-4,9-dihydroxy-1,12-dihydro-14H-pyrano[3',4':6,7]indolizino[1,2-b]quinoline-3,14(4H)-dione accumulation at 25 mg/kg measured after 12 hr by HPLC analysis. It counts as ADME, organism-based, Neoplasm. The note with it: in vivo.
Data set [30] is described as follows: Toxicity in female BALB/cA nude mouse assessed as appearance of inflammatory lesions in lung at 25 mg/kg, iv administered once a week for 35 days by H and E staining based analysis. It counts as organism-based. The note with it: in vivo, 840 h, time 35 day.
A short description of data set [31]: Toxicity in female BALB/cA nude mouse assessed as appearance of inflammatory lesions in spleen at 25 mg/kg, iv administered once a week for 35 days by H and E staining based analysis. It counts as organism-based. The note with it: in vivo, 840 h, time 35 day.
Data set [32] in a line: Toxicity in female BALB/cA nude mouse assessed as appearance of inflammatory lesions in liver at 25 mg/kg, iv administered once a week for 35 days by H and E staining based analysis. It counts as organism-based. The note with it: in vivo, 840 h, time 35 day.
Data set [33] is described as follows: Toxicity in female BALB/cA nude mouse assessed as appearance of inflammatory lesions in kidney at 25 mg/kg, iv administered once a week for 35 days by H and E staining based analysis. It counts as organism-based. The note with it: in vivo, 840 h, time 35 day.
Data set [34] in a line: Toxicity in female BALB/cA nude mouse assessed as animal fatality at 25 mg/kg, iv administered once a week for 35 days. The note with it: in vivo, 840 h, time 35 day. It counts as organism-based.
Data set [35] is described as follows: Toxicity in female BALB/cA nude mouse assessed as fibrotic changes in lung at 25 mg/kg, iv administered once a week for 35 days by H and E staining based analysis. It counts as organism-based. The note with it: in vivo, 840 h, time 35 day.

Active and inactive are the calls of the source. The calls are words filed in the database; no cut-off is given here.

Usually AUC(0-t) stands for exposure summed from dosing to a finite time, without extrapolation to infinity. High values mean high exposure, low ones low exposure. As usually defined, the Vd is a proportionality between amount in the body and measured concentration, not a real space. Higher therefore signals extensive tissue distribution. As usually defined, the clearance is the rate of elimination divided by the concentration. Higher therefore signals a high capacity for elimination. For the compound `CCc1c2c(nc3ccc(OCc4ccc(O[C@@H]5O[C@H](C(=O)O)[C@@H](O)[C@H](O)[C@H]5O)c(NC(=O)CCNC(=O)COCCOCCNC(=O)COCCOCCNC(=O)CC[C@H](NC(=O)CCCCCCCCCCCCCCCCC(=O)O)C(=O)O)c4)cc13)-c1cc3c(c(=O)n1C2)COC(=O)[C@]3(O)CC`, the Activity result is “Toxic” in data set [1]; “Non-toxic” in data set [3]; “Non-toxic” in [4]; “Non-toxic” in [5]; 10.59% with HCT-116 [6]; “Non-toxic” in [7]. Further, the Activity entry was “Non-toxic” in data set [8]; “Toxic” in data set [11]; “Toxic” in data set [12]; “Non-toxic” in data set [13]; “Non-toxic” in [14]; “Non-toxic” in [15]. In addition, the Activity result was “Non-toxic” in data set [16], “Non-toxic” in [18], “Non-toxic” in data set [20] and 34.39% in the data set on BXPC-3 [21]. In [2], the AUC(0-t) at 168 h worked out at 837 µg·h/mL. This compound also had a Vd in [9] of 0.24 L/kg. This compound had a clearance in data set [10] of 0.753 mL/min/kg. The Drug metabolism in data set [17] amounted to 0.376 % ID/g. The outcome with BXPC-3 [19] was inactive.

The Cmax is the peak of the concentration-time curve. Take `CCc1c2c(nc3ccc(OCc4ccc(O[C@@H]5O[C@H](C(=O)O)[C@@H](O)[C@H](O)[C@H]5O)c(NC(=O)CCNC(=O)CCCCCN5C(=O)C=CC5=O)c4)cc13)-c1cc3c(c(=O)n1C2)COC(=O)[C@]3(O)CC`: the Activity result in data set [22] is “Toxic”; in data set [23], “Non-toxic”; in data set [24] it was “Non-toxic”; in the data set on HCT-116 [25] it was 100%; with HCT-116 [26], 100%; in [30] it was “Non-toxic”. In addition, the Activity entry in [31], in data set [32], in data set [33], in data set [34] and in data set [35] was “Non-toxic” in each case. In data set [27], the peak level (Cmax) was 50.7 µg/mL. This compound yielded a t1/2 in [28] of 52.31 h. Further, the Drug metabolism in data set [29] stood at 0.725 % ID/g.

The values above are taken from ChEMBL document CHEMBL6134851, “Comparative Study on Covalent and Noncovalent Endogenous Albumin-Binding β-Glucuronidase-Activated SN38 Prodrugs for Antitumor Efficacy” (J Med Chem, 2025).
